Test results from ChEMBL document CHEMBL4630905 (2021).
Each block holds one molecule with its values, some of them ahead of it. Activity calls are given as the source filed them. The calls are words filed in the database; no cut-off is given here.

How the values were obtained:
[1] = target: SWI/SNF-related matrix-associated actin-dependent regulator of chromatin subfamily A member 4 (Homo sapiens, UniProt P51532); experiment: SMARCA4 DiscoverX BROMOscan
[2] = target: Transcription intermediary factor 1-alpha (Homo sapiens, UniProt O15164); experiment: TRIM24 (TIF1alpha) (PHD & BD) DiscoverX BROMOscan
[3] = target: Nucleosome-remodeling factor subunit BPTF (Homo sapiens, UniProt Q12830); experiment: FALZ DiscoverX BROMOscan
[4] = target: T1, Bromodomain testis-specific protein (Homo sapiens, UniProt Q58F21); experiment: BET mutant TR-FRET assay (BRDT BD1)
[5] = target: Chromatin remodeling regulator CECR2 (Homo sapiens, UniProt Q9BXF3); experiment: CECR2 DiscoverX BROMOscan
[6] = target: Sodium-dependent serotonin transporter (Homo sapiens) (UniProt P31645); conditions: Compound concentration 10.0 uM
[7] = target: D(4) dopamine receptor (Homo sapiens) (UniProt P21917); conditions: Compound concentration 10.0 uM
Sequence of D(4) dopamine receptor (Homo sapiens) (P21917 whole entry): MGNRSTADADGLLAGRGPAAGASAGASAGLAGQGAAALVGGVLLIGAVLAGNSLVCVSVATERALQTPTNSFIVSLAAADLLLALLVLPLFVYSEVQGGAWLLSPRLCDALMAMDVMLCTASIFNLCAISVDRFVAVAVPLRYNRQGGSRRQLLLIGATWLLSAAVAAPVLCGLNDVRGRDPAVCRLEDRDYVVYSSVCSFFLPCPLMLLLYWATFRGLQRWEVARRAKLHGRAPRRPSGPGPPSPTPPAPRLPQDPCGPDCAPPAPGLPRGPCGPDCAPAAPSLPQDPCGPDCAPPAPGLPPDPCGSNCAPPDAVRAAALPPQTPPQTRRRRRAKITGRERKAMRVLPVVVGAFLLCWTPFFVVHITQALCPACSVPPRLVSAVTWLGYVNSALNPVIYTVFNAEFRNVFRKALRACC

[8] = target: Alpha-1D adrenergic receptor (Homo sapiens) (UniProt P25100); conditions: Compound concentration 10.0 uM
Peregrin = Peregrin (Homo sapiens, UniProt P55201); experiment: BRPF1 DiscoverX BROMOscan
[9] = target: Sigma intracellular receptor 2 (Homo sapiens) (UniProt Q5BJF2); conditions: Compound concentration 10.0 uM
Sequence of Sigma intracellular receptor 2 (Homo sapiens) (Q5BJF2 whole entry): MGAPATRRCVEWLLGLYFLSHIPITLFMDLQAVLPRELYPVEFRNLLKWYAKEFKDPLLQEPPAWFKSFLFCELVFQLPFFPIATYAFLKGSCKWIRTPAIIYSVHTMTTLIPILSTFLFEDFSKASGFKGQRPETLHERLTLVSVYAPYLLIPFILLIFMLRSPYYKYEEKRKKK

[10] = target: Histamine H3 receptor (Homo sapiens) (UniProt Q9Y5N1); conditions: Compound concentration 10.0 uM
Sequence of Histamine H3 receptor (Homo sapiens) (Q9Y5N1 whole entry): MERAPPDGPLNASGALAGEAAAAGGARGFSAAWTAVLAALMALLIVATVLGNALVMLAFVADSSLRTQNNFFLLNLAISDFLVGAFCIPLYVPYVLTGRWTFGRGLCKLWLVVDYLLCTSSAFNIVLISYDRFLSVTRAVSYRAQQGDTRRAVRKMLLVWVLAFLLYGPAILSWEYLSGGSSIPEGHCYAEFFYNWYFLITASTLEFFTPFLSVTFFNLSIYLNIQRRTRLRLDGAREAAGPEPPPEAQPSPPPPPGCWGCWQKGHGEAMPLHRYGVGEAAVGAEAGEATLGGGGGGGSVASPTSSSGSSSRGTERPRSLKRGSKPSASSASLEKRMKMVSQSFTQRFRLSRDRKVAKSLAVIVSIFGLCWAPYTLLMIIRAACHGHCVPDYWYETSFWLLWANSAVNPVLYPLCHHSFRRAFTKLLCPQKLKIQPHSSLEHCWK

[11] = target: 5-hydroxytryptamine receptor 2C (Homo sapiens) (UniProt P28335); conditions: Compound concentration 10.0 uM
[12] = target: D(2) dopamine receptor (Homo sapiens) (UniProt P14416); conditions: Compound concentration 10.0 uM
Tumor necrosis factor = Tumor necrosis factor (Homo sapiens, UniProt P01375); experiment: In vitro inhibition of TNFalpha in Lipopolysaccharide-stimulated human whole blood; assay type: tissue-based
MV4-11 = experiment: Proliferation assay (MV-4−11 cells); assay type: functional, cell-based; conditions: Homo sapiens
[13] = target: Bromodomain and WD repeat-containing protein 1 (Homo sapiens, UniProt Q9NSI6); experiment: WDR9 (BD2) DiscoverX BROMOscan
[14] = target: T2, Bromodomain-containing protein 3 (Homo sapiens, UniProt Q15059); experiment: BET mutant TR-FRETassay (BRD3 BD1)
T2 sequence (Q15059 2-726 limits assumed, change not shown): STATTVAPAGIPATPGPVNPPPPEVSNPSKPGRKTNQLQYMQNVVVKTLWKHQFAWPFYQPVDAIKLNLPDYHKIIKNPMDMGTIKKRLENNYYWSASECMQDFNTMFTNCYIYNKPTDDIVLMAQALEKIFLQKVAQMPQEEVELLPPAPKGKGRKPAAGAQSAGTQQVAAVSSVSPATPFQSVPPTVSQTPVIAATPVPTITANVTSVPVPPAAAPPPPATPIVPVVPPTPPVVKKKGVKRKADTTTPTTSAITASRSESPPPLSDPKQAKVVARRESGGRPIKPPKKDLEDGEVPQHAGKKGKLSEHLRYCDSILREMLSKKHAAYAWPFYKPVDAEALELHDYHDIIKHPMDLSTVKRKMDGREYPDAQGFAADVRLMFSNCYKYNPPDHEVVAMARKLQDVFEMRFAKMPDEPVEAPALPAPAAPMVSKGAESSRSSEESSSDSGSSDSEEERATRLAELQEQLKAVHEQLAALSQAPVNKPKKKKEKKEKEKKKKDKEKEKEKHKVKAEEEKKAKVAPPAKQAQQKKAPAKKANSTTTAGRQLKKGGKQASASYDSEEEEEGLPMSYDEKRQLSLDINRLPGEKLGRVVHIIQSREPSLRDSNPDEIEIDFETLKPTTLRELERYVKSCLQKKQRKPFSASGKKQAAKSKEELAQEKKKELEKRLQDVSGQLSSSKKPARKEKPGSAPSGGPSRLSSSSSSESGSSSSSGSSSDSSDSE

[15] = target: Alpha-1A adrenergic receptor (Homo sapiens) (UniProt P35348); conditions: Compound concentration 10.0 uM
[16] = target: Bromodomain-containing protein 7 (Homo sapiens, UniProt Q9NPI1); experiment: BRD7 DiscoverX BROMOscan
[17] = target: Histone acetyltransferase KAT2A (Homo sapiens, UniProt Q92830); experiment: GCN5L2 DiscoverX BROMOscan
[18] = target: Muscarinic acetylcholine receptor M5 (Homo sapiens) (UniProt P08912); conditions: Compound concentration 10.0 uM
[19] = target: 5-hydroxytryptamine receptor 3A (Homo sapiens) (UniProt P46098); conditions: Compound concentration 10.0 uM
[20] = target: 5-hydroxytryptamine receptor 5A (Homo sapiens) (UniProt P47898); conditions: Compound concentration 10.0 uM
[21] = target: Muscarinic acetylcholine receptor M1 (Homo sapiens) (UniProt P11229); conditions: Compound concentration 10.0 uM
[22] = target: 5-hydroxytryptamine receptor 2A (Homo sapiens) (UniProt P28223); conditions: Compound concentration 10.0 uM
Sequence of 5-hydroxytryptamine receptor 2A (Homo sapiens) (P28223 whole entry): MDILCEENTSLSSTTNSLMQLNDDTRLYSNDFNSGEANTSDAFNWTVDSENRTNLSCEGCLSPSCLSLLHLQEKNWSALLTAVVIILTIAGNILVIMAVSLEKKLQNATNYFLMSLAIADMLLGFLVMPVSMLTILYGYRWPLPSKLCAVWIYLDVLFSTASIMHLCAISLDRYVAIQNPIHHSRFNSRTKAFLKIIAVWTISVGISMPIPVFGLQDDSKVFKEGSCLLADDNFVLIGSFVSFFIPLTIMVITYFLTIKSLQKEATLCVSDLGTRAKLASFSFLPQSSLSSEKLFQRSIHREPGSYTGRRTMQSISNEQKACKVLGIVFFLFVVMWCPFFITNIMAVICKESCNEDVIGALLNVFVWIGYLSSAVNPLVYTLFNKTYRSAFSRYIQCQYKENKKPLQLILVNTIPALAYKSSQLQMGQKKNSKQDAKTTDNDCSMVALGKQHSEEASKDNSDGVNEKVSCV

[23] = target: Histamine H1 receptor (Homo sapiens) (UniProt P35367); conditions: Compound concentration 10.0 uM
[24] = target: Muscarinic acetylcholine receptor M4 (Homo sapiens) (UniProt P08173); conditions: Compound concentration 10.0 uM
[25] = target: Alpha-2C adrenergic receptor (Homo sapiens) (UniProt P18825); conditions: Compound concentration 10.0 uM
[26] = target: T1, Bromodomain testis-specific protein; experiment: BET mutant TR-FRET assay (BRDT BD2)
[27] = target: T3, GABA-A receptor; anion channel (Rattus norvegicus) (UniProt O09028+P15431+P18506+P18508+P19969+P20236+P23574+P23576+P28471+P28473+P30191+P62813+P63079+P63138+Q91ZM7+Q9ES14); conditions: Compound concentration 10.0 uM
[28] = target: Alpha-2B adrenergic receptor (Homo sapiens) (UniProt P18089); conditions: Compound concentration 10.0 uM
Interleukin-6 = Interleukin-6 (Homo sapiens, UniProt P05231); experiment: In vitro inhibition of IL-6 in Lipopolysaccharide-stimulated human whole blood; assay type: tissue-based
Sequence of Interleukin-6 (P05231 whole entry): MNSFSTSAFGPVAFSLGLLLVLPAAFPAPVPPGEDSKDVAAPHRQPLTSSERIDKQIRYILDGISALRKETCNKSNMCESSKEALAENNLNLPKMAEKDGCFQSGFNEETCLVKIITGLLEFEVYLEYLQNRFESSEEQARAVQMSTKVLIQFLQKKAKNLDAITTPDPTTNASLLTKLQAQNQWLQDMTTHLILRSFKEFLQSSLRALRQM

[29] = target: E3 ubiquitin-protein ligase TRIM33 (Homo sapiens, UniProt Q9UPN9); experiment: TRIM33 (TIF1gamma) (PHD & BD) DiscoverX BROMOscan
[30] = target: Bromodomain-containing protein 9 (Homo sapiens, UniProt Q9H8M2); experiment: BRD9 DiscoverX BROMOscan
[31] = target: Bromodomain and PHD finger-containing protein 3 (Homo sapiens, UniProt Q9ULD4); experiment: BRPF3 DiscoverX BROMOscan
[32] = target: Histone acetyltransferase p300 (Homo sapiens, UniProt Q09472); experiment: EP300 DiscoverX BROMOscan
[33] = target: D(1B) dopamine receptor (Homo sapiens) (UniProt P21918); conditions: Compound concentration 10.0 uM
[34] = target: 5-hydroxytryptamine receptor 1B (Homo sapiens) (UniProt P28222); conditions: Compound concentration 10.0 uM
Sequence of 5-hydroxytryptamine receptor 1B (Homo sapiens) (P28222 whole entry): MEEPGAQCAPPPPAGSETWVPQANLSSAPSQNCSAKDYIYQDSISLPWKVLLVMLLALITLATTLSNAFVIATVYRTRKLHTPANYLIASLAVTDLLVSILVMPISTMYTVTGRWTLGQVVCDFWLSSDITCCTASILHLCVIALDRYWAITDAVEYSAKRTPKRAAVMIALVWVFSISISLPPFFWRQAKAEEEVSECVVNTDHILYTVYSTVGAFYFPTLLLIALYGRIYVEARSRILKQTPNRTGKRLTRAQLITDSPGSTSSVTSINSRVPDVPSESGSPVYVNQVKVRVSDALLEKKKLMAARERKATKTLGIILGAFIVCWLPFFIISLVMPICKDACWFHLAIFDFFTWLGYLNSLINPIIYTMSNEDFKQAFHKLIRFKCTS

[35] = target: D(3) dopamine receptor (Homo sapiens) (UniProt P35462); conditions: Compound concentration 10.0 uM
Sequence of D(3) dopamine receptor (Homo sapiens) (P35462 whole entry): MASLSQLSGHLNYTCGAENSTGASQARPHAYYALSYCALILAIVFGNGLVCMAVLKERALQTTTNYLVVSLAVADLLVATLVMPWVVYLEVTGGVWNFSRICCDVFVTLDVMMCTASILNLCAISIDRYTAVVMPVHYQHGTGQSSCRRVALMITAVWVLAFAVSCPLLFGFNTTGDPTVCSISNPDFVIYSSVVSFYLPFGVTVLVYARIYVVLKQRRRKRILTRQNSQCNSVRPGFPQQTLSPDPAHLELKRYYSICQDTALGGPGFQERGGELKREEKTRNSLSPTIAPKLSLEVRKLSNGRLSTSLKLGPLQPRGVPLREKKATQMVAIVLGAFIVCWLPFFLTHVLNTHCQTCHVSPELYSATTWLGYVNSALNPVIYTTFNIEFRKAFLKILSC

[36] = target: T4, Bromodomain-containing protein 2 (Homo sapiens, UniProt P25440); experiment: BET mutant TR-FRET assay (BRD2 BD2)
T4 sequence (P25440 whole entry, looked up, change not shown): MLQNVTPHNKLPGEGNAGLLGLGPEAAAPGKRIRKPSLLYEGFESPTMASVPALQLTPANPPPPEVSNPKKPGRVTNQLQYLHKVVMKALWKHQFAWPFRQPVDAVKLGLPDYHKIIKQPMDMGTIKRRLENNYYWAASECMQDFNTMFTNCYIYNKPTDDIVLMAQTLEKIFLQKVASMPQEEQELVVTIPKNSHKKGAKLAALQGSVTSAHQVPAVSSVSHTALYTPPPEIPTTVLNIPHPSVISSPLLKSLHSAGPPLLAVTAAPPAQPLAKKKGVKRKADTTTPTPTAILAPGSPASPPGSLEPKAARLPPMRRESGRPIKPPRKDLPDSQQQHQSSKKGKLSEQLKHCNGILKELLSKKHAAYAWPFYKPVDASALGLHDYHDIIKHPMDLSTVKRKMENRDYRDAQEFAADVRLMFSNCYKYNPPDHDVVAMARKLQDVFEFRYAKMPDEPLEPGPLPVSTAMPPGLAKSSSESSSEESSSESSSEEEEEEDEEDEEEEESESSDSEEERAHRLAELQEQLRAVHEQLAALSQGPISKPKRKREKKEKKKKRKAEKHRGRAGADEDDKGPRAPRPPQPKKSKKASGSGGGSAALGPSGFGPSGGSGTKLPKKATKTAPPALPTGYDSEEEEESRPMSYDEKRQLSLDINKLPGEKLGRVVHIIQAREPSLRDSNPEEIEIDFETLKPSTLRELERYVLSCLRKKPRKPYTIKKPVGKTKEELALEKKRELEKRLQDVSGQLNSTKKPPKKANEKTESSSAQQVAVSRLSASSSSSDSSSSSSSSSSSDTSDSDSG

D(4) dopamine receptor = D(4) dopamine receptor (Homo sapiens, UniProt P21917); experiment: GPCRScan assay: inhibition of D4; design: radioligand conc. used [nm] 0.6 – 1.7, parental cells Stable HEK
Sequence of D(4) dopamine receptor (P21917 whole entry): as the sequence (P21917 whole entry) above

[37] = target: Alpha-2A adrenergic receptor (Homo sapiens) (UniProt P08913); conditions: Compound concentration 10.0 uM
[38] = target: T2, Bromodomain-containing protein 3; experiment: BET mutant TR-FRET assay (BRD3 BD2)
[39] = target: Sodium-dependent dopamine transporter (Homo sapiens) (UniProt Q01959); conditions: Compound concentration 10.0 uM
[40] = target: Beta-2 adrenergic receptor (Homo sapiens) (UniProt P07550); conditions: Compound concentration 10.0 uM
[41] = target: T3, GABA-A receptor; anion channel (Rattus norvegicus); conditions: Compound concentration 10.0 uM; remark: listed apart in the source
[42] = target: Histamine H2 receptor (Homo sapiens) (UniProt P25021); conditions: Compound concentration 10.0 uM
Sequence of Histamine H2 receptor (Homo sapiens) (P25021 whole entry): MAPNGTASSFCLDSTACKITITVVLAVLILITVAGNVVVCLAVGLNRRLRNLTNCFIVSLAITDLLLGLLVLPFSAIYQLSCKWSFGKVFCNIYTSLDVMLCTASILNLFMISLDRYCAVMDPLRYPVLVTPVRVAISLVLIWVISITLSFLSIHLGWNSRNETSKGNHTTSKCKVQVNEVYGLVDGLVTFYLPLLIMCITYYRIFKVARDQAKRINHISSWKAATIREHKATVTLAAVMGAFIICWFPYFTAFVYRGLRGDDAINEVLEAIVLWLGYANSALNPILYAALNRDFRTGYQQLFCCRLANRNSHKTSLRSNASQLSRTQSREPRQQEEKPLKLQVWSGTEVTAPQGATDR

[43] = target: Alpha-1B adrenergic receptor (Homo sapiens) (UniProt P35368); conditions: Compound concentration 10.0 uM
Sequence of Alpha-1B adrenergic receptor (Homo sapiens) (P35368 whole entry): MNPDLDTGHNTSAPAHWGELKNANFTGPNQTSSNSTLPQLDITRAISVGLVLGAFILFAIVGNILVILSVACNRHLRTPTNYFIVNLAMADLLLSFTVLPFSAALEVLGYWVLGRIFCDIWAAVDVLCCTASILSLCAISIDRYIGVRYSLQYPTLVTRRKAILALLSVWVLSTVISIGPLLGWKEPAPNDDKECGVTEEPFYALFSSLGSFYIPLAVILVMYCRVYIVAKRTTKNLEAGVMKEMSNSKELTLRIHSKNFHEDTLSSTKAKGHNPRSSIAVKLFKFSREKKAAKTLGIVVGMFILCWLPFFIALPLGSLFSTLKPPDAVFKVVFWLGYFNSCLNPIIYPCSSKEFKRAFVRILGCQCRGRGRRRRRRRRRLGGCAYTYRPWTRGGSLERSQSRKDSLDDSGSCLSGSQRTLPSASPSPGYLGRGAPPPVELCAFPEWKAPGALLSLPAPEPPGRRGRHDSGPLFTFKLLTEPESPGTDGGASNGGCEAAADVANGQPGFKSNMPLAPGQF

[44] = target: Histamine H4 receptor (Homo sapiens) (UniProt Q9H3N8); conditions: Compound concentration 10.0 uM
THP-1 = experiment: Proliferation assay (THP-1 cells); assay type: functional, cell-based; conditions: Homo sapiens
CREB-binding protein = CREB-binding protein (Homo sapiens, UniProt Q92793); experiment: CREBBP DiscoverX BROMOscan
[45] = target: T5, Bromodomain-containing protein 8 (Homo sapiens, UniProt Q9H0E9); experiment: BRD8 (BD1) DiscoverX BROMOscan
HL-60 = experiment: Proliferation assay (HL60 cells); assay type: functional, cell-based; conditions: Homo sapiens
Rattus norvegicus = species: Rattus norvegicus; conditions: Compound concentration 10.0 uM
[46] = target: Beta-1 adrenergic receptor (Homo sapiens) (UniProt P08588); conditions: Compound concentration 10.0 uM
[47] = target: 5-hydroxytryptamine receptor 1D (Homo sapiens) (UniProt P28221); conditions: Compound concentration 10.0 uM
[48] = target: Beta-3 adrenergic receptor (Homo sapiens) (UniProt P13945); conditions: Compound concentration 10.0 uM
[49] = target: T1, Bromodomain testis-specific protein; experiment: BRDT (1,2) DiscoverX BROMOscan
[50] = target: D(1A) dopamine receptor (Homo sapiens) (UniProt P21728); conditions: Compound concentration 10.0 uM
[51] = target: T5, Bromodomain-containing protein 8; experiment: BRD8 (BD2) DiscoverX BROMOscan
[52] = target: Bromodomain adjacent to zinc finger domain protein 2B (Homo sapiens, UniProt Q9UIF8); experiment: BAZ2B DiscoverX BROMOscan
Protein polybromo-1 = Protein polybromo-1 (Homo sapiens, UniProt Q86U86); experiment: PBRM1 (BD2) DiscoverX BROMOscan
[53] = target: Bromodomain-containing protein 1 (Homo sapiens, UniProt O95696); experiment: BRD1 DiscoverX BROMOscan
C-C motif chemokine 2 = C-C motif chemokine 2 (Homo sapiens, UniProt P13500); experiment: In vitro inhibition of MCP-1 in Lipopolysaccharide-stimulated human whole blood; assay type: tissue-based
[54] = target: T4, Bromodomain-containing protein 2; experiment: BET mutant TR-FRET assay (BRD2 BD1)
[55] = target: 5-hydroxytryptamine receptor 1A (Homo sapiens) (UniProt P08908); conditions: Compound concentration 10.0 uM
[56] = target: Muscarinic acetylcholine receptor M2 (Homo sapiens) (UniProt P08172); conditions: Compound concentration 10.0 uM
[57] = target: Sodium-dependent noradrenaline transporter (Homo sapiens) (UniProt P23975); conditions: Compound concentration 10.0 uM
[58] = target: SWI/SNF-related matrix-associated actin-dependent regulator of chromatin subfamily A member 2 (Homo sapiens, UniProt P51531); experiment: SMARCA2 DiscoverX BROMOscan
[59] = target: Histone acetyltransferase KAT2B (Homo sapiens, UniProt Q92831); experiment: PCAF DiscoverX BROMOscan
[60] = target: Muscarinic acetylcholine receptor M3 (Homo sapiens) (UniProt P20309); conditions: Compound concentration 10.0 uM
[61] = target: 5-hydroxytryptamine receptor 1E (Homo sapiens) (UniProt P28566); conditions: Compound concentration 10.0 uM
[62] = target: GABA-A receptor; anion channel; experiment: GPCRScan assay: inhibition of GABAA/BZP; assay type: protein-complex assay, Rattus norvegicus; design: radioligand conc. used [nm] 0.6 – 4.0, parental cells brain tissue

Kd [1]: 31.6 µM | Kd [2]: 31.6 µM | Kd [3]: 31.6 µM | pIC50 [4]: 6.2 | Kd [5]: 31.6 µM | inhibition [6]: 17.7% | inhibition [7]: 97.9% | inhibition [8]: 36.6% | Kd (Peregrin): 31.6 µM | inhibition [9]: 9.26% | inhibition [10]: -9.93% | inhibition [11]: 14% | inhibition [12]: -4.38% | IC50 (MV4-11): 0.125 µM (active) | Kd [13]: 31.6 µM | pIC50 [14]: 6.8 | inhibition [15]: 25.2% | Kd [16]: 25.1 µM | Kd [17]: 31.6 µM | inhibition [18]: 16.3% | inhibition [19]: 31.8% | inhibition [20]: 24.1% | inhibition [21]: -9.42% | inhibition [22]: -5.01% | inhibition [23]: -0.72% | inhibition [24]: 17.1% | inhibition [25]: 8.58% | pIC50 [26]: 4.9 | inhibition [27]: 14.8% | inhibition [28]: -0.37% | IC50 (Interleukin-6): 3.55 µM (active) | Kd [29]: 31.6 µM | Kd [30]: 31.6 µM | Kd [31]: 31.6 µM | Kd [32]: 25.1 µM | inhibition [33]: 33.2% | inhibition [34]: 3.37% | inhibition [35]: 9.01% | pIC50 [36]: 4.7 | Ki (D(4) dopamine receptor; read-out: Ki): 1.01 µM | Ki (D(4) dopamine receptor; read-out: pKi (converted)): 1.01 µM | inhibition [37]: -3.97% | pIC50 [38]: 4.7 | inhibition [39]: 28.5% | inhibition [40]: 19.8% | inhibition [41]: 24.7% | inhibition [42]: -1.12% | inhibition [43]: 11.8% | inhibition [44]: 15.9% | IC50 (THP-1): 0.258 µM (active) | Kd (CREB-binding protein): 31.6 µM | Kd [45]: 31.6 µM | IC50 (HL-60): 0.39 µM (active) | inhibition (Rattus norvegicus): 3.9% | inhibition [46]: 1.68% | inhibition [47]: -6.42% | inhibition [48]: 13.8% | Kd [49]: 0.1 µM | inhibition [50]: 27.3% | Kd [51]: 31.6 µM | Kd [52]: 31.6 µM | Kd (Protein polybromo-1): 31.6 µM | Kd [53]: 31.6 µM | IC50 (C-C motif chemokine 2): 0.67 µM (active) | pIC50 [54]: 7 | inhibition [55]: 17.3% | inhibition [56]: 0.27% | inhibition [57]: 30.5% | Kd [58]: 31.6 µM | Kd [59]: 31.6 µM
Compound: Cc1cc2c(-c3ccco3)cnc(N[C@@H]3CCN(C)C[C@H]3C(=O)NC3CCCCC3)c2[nH]c1=O [GSK789]
IC50 (Tumor necrosis factor): 0.87 µM (active)

pIC50 [4]: 5.2 | inhibition [6]: 13.8% | inhibition [7]: 17.4% | inhibition [8]: 7.87% | inhibition [60]: 28.9% | inhibition [9]: 44.1% | inhibition [10]: -2.09% | inhibition [11]: 3.86% | pIC50 [14]: 5.4 | inhibition [15]: 10.1% | inhibition [18]: 7.44% | inhibition [19]: 1.04% | inhibition [20]: 10.1% | inhibition [21]: 12% | inhibition [22]: 2.71% | inhibition [23]: 11.7% | inhibition [24]: -3% | inhibition [25]: 10.8% | pIC50 [26]: 5.1 | inhibition [27]: 14.9% | inhibition [28]: 28.5% | inhibition [33]: 35.4% | inhibition [34]: 1.93% | inhibition [35]: 15.5% | pIC50 [36]: 4.8 | inhibition [37]: 9.8% | pIC50 [38]: 4.7 | inhibition [39]: 8.66% | inhibition [40]: 4.04% | inhibition [41]: 86.3% | inhibition [42]: 21.6% | inhibition [43]: 1.98% | inhibition (Rattus norvegicus): -8.18% | inhibition [46]: 2.98% | inhibition [61]: 9.79% | inhibition [47]: 33.1% | inhibition [48]: 35.1% | inhibition [50]: 21.2% | Ki [62]: 2.54 µM | pIC50 [54]: 5.6 | inhibition [55]: 16.9% | inhibition [56]: 5.25% | inhibition [57]: 32.4%
Compound: Cc1cc2c(-c3ccco3)cnc(N[C@H]3CCN(C)C[C@@H]3C(=O)NC3CCCCC3)c2[nH]c1=O [GSK791]
